In PMC9203742 (Nature Communications, 2022):
“And” between values parts separate entries of the source, which are not always exact repeats. Equal entries are not always repeated.

Columns and labels:
[1] = molecular target: T1, mGlu1(N264H) mutant (Rattus norvegicus, UniProt P23385, N264H); assay: Fura-2 Ca2+ imaging in HEK293 cells expressing mGlu1(N264H); assay type: cell-based; conditions: 10 µM LY367385, 1 µM FITM, 10 µM YM254890 or 1 µM U73122
T1 construct: expressed in transfected cells; host or cells: HEK293

[2] = molecular target: T2, cell-surface mGlu1 in cerebellar slices of mGlu1^+/+ mice (Mus musculus, UniProt P97772); assay: Confocal live imaging of cell-surface mGlu1 with FITM-Cy3 in acute cerebellar slices, mGlu1^+/+; assay type: binding
T2 construct: from tissue; host or cells: acute cerebellar slices of mGlu1+/+ (C57BL/6J) mice
Method: (§1) Sagittal cerebellar slices were cut with a microslicer (Linear slicer Pro7; DOSAKA EM) in cutting solution buffer and then incubated in ACSF gassed with 5% CO2 and 95% O2 at room temperature.
(§2) The cerebellar slices prepared from mGlu1^+/+ or mGlu1^CBC/CBC mice, were incubated with 10 nM FITM-Cy3 and 10 µg/mL Hoechst33342 for 30 min at room temperature in a humidified atmosphere of 5% CO2 and 95% O2. As a negative control, the cerebellar slices were incubated with 10 nM FITM-Cy3, 10 µg/mL Hoechst33342, and 500 nM FITM. Then, the slices were subjected to confocal live imaging using a confocal microscope (LSM900, Carl Zeiss). The fluorescence intensity of Cy3 at the molecular layer were quantified by ZEN blue software (Carl Zeiss).

[3] = molecular target: T3, cell-surface mGlu1 in cerebellar slices of mGlu1^CBC/CBC mice (Mus musculus, UniProt P97772, N264H); assay: Confocal live imaging of cell-surface mGlu1 with FITM-Cy3 in acute cerebellar slices, mGlu1^CBC/CBC; assay type: binding
T3 construct: from tissue; host or cells: acute cerebellar slices of homozygous mGlu1(N264H) knock-in (mGlu1CBC/CBC) mice
Method: as §1, §2

[4] = tested on: primary cortical neurons; assay: Fura-2 Ca2+ imaging (abnormal Ca2+ response) in cultured cortical neurons; conditions: co-treated 30 µM LY367385, 1 µM FITM or 10 µM U73122
[5] = molecular target: T4, WT mGlu1 (Rattus norvegicus, UniProt P23385); assay type: cell-based
T4 construct: expressed in transfected cells; host or cells: HEK293

[6] = molecular target: T5, mGlu1 P58H/N264H mutant (Rattus norvegicus, UniProt P23385, N264H/P58H); assay: Fura-2 Ca2+ imaging in HEK293 cells expressing mGlu1 P58H/N264H; assay type: cell-based
T5 construct: expressed in transfected cells; host or cells: HEK293

[7] = molecular target: T6, mGlu1 A59H/N264H mutant (Rattus norvegicus, UniProt P23385, A59H/N264H); assay: Fura-2 Ca2+ imaging in HEK293 cells expressing mGlu1 A59H/N264H; assay type: cell-based
T6 construct: expressed in transfected cells; host or cells: HEK293

[8] = molecular target: T7, mGlu1 K61H/N264H mutant (Rattus norvegicus, UniProt P23385, K61H/N264H); assay: Fura-2 Ca2+ imaging in HEK293 cells expressing mGlu1 K61H/N264H; assay type: cell-based
T7 construct: expressed in transfected cells; host or cells: HEK293

[9] = molecular target: T8, mGlu1 P57H/N264H mutant (Rattus norvegicus, UniProt P23385, N264H/P57H); assay: Fura-2 Ca2+ imaging in HEK293 cells expressing mGlu1 P57H/N264H; assay type: cell-based
T8 construct: expressed in transfected cells; host or cells: HEK293

[10] = molecular target: T9, mGlu1 E60H/N264H mutant (Rattus norvegicus, UniProt P23385, E60H/N264H); assay: Fura-2 Ca2+ imaging in HEK293 cells expressing mGlu1 E60H/N264H; assay type: cell-based
T9 construct: expressed in transfected cells; host or cells: HEK293

[11] = tested on: HEK293 cells, vector control; assay: Fura-2 Ca2+ imaging in HEK293 cells transfected with control vector (Vec); assay type: cell-based; conditions: single-cell values #1-#20
[12] = tested on: mGlu1 construct not given; assay: Fura-2 Ca2+ imaging in HEK293 cells, source data Suppl Fig1, left group (c0-c8); construct not given; assay type: cell-based, rat; conditions: single-cell values, cells #15-#20; left group of third block
Excerpt: (§3) Supplement 41467_2022_30828_MOESM6_ESM.zip/Ojima et al_source data_Suppl Fig.xlsx, sheet "Suppl Fig1" | column: Glu; NiCl2; CuCl2; ZnCl2; CdCl2; Na2PdCl2; Pd(bpy)

[13] = tested on: HEK293 cells, vector control; assay: Fura-2 Ca2+ imaging in HEK293 cells transfected with control vector (Vec); assay type: cell-based; conditions: Fig.1e
Excerpt: Supplement 41467_2022_30828_MOESM6_ESM.zip/Ojima et al_source data_Main Figure.xlsx, sheet "Fig.1e" | column: Vec

[14] = molecular target: T10, mGlu1 A59H/A265H mutant (Rattus norvegicus, UniProt P23385, A265H/A59H); assay: Fura-2 Ca2+ imaging in HEK293 cells expressing mGlu1 A59H/A265H; assay type: cell-based; conditions: single-cell values
T10 construct: expressed in transfected cells; host or cells: HEK293

[15] = tested on: mGlu1 construct not given; assay: Fura-2 Ca2+ imaging in HEK293 cells, source data Suppl Fig1, middle group (c9-c17); construct not given; assay type: cell-based, rat; conditions: single-cell values, cells #15-#20; middle group of third block
Excerpt: as §3

[16] = molecular target: T10, mGlu1 A59H/A265H mutant; assay: Fura-2 Ca2+ imaging in HEK293 cells expressing mGlu1 A59H/A265H; assay type: cell-based; conditions: Fig.1e
[17] = molecular target: T11, mGlu1 A59H/G266H mutant (Rattus norvegicus, UniProt P23385, A59H/G266H); assay: Fura-2 Ca2+ imaging in HEK293 cells expressing mGlu1 A59H/G266H; assay type: cell-based; conditions: single-cell values
T11 construct: expressed in transfected cells; host or cells: HEK293

[18] = tested on: mGlu1 construct not given; assay: Fura-2 Ca2+ imaging in HEK293 cells, source data Suppl Fig1, right group (c18-c26); construct not given; assay type: cell-based, rat; conditions: single-cell values, cells #15-#20; right group of third block
Excerpt: as §3

[19] = molecular target: T11, mGlu1 A59H/G266H mutant; assay: Fura-2 Ca2+ imaging in HEK293 cells expressing mGlu1 A59H/G266H; assay type: cell-based; conditions: Fig.1e
[20] = 10 nM FITM-Cy3 with excess (500 nM) FITM
[21] = mGlu1+/+, relative to Ave of mGlu1+/+ FITM (-) = 1
[22] = mGlu1CBC/CBC, relative to Ave of mGlu1+/+ FITM (-) = 1

T2 sequence (P97772 19-1199 limits assumed): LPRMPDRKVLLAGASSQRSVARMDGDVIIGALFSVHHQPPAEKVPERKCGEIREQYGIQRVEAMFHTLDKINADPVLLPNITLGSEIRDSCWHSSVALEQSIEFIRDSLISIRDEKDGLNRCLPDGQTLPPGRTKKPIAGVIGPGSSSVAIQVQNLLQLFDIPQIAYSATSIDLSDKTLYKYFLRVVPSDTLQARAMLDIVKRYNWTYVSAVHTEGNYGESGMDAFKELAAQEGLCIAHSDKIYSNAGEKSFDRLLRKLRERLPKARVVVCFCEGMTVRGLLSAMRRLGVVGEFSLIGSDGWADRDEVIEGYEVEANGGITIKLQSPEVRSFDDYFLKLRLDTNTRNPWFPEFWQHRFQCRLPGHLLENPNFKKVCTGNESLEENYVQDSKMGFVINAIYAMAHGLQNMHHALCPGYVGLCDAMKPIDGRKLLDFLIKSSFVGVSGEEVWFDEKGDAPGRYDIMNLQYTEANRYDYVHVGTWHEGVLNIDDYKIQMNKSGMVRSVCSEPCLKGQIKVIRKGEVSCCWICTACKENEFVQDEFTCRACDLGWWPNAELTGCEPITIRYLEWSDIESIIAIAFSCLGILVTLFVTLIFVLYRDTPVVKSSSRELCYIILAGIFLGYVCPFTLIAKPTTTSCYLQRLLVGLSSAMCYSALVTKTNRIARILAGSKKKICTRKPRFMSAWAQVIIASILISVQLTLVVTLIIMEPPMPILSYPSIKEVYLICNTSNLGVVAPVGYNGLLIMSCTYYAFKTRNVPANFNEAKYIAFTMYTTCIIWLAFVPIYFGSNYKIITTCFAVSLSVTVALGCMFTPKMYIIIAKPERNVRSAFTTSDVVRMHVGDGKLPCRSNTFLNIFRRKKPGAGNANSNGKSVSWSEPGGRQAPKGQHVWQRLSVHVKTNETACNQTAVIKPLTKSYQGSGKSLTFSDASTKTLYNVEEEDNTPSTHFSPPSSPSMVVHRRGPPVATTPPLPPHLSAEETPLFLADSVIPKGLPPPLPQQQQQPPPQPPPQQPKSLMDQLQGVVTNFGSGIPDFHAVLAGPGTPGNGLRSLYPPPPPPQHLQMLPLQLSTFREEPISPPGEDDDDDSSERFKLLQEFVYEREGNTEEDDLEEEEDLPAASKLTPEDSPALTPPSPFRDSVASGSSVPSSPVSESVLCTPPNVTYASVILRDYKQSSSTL
T6 sequence (P23385 19-1199 A59H/N264H): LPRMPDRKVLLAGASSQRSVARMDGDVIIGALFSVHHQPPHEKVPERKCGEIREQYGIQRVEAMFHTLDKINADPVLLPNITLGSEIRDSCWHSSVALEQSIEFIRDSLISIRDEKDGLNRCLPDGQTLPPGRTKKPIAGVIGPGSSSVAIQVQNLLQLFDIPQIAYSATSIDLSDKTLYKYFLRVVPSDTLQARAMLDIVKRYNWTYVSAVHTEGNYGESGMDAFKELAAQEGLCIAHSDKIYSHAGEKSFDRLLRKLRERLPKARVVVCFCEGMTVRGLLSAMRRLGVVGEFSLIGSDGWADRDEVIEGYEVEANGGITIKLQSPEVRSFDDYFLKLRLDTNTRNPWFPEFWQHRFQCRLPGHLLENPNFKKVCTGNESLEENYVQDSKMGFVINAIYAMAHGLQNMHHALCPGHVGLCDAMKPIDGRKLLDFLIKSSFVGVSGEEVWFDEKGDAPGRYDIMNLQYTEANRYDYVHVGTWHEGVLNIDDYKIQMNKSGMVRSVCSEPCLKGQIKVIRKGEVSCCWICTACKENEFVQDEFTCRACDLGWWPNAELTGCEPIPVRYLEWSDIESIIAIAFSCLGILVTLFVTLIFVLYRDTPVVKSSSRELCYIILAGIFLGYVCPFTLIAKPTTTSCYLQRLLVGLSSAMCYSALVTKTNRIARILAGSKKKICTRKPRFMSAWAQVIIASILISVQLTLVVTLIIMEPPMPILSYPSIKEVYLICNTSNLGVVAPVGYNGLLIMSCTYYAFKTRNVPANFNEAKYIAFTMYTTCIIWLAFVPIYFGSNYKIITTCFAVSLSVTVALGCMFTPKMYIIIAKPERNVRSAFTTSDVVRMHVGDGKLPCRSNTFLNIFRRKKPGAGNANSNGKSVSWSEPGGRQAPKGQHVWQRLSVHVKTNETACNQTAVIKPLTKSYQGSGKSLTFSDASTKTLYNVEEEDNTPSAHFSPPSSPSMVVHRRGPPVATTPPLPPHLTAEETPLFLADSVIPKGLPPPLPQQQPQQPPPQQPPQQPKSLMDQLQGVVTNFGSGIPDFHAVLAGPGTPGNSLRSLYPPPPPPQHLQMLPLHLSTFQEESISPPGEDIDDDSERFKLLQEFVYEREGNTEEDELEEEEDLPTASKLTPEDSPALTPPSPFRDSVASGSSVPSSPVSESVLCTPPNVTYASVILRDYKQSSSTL
T11 sequence (P23385 19-1199 A59H/G266H): as the sequence (P23385 19-1199 A59H/N264H) above, with H246N, G248H counted along it
T10 sequence (P23385 19-1199 A59H/A265H): as the sequence (P23385 19-1199 A59H/N264H) above, with H246N, A247H counted along it
T3 sequence (P97772 19-1199 N264H limits assumed): as the sequence (P97772 19-1199 limits assumed) above, with N246H counted along it
T7 sequence (P23385 19-1199 K61H/N264H): as the sequence (P23385 19-1199 A59H/N264H) above, with H41A, K43H counted along it
T8 sequence (P23385 19-1199 P57H/N264H): as the sequence (P23385 19-1199 A59H/N264H) above, with P39H, H41A counted along it
T5 sequence (P23385 19-1199 P58H/N264H): as the sequence (P23385 19-1199 A59H/N264H) above, with P40H, H41A counted along it
T9 sequence (P23385 19-1199 E60H/N264H): as the sequence (P23385 19-1199 A59H/N264H) above, with H41A, E42H counted along it
T4 sequence (P23385 19-1199): as the sequence (P23385 19-1199 A59H/N264H) above, with H41A, H246N counted along it
T1 sequence (P23385 19-1199 N264H): as the sequence (P23385 19-1199 A59H/N264H) above, with H41A counted along it

SMILES: CC(C)Nc1cc(-c2csc(N(C)C(=O)c3ccc(F)cc3)n2)ncn1 [FITM]
- Effect of pre-treated inhibitor on 10 µM Pd(bpy)-induced Ca2+ responses [1]: inhibited
- Competition of FITM-Cy3 fluorescence in the molecular layer [2, 20]: disappearance of fluorescence
- FITM-Cy3 signal with FITM (+), Ave (Fig.5d) [2, 21]: 0.2072
- FITM-Cy3 signal with FITM (+), individual values #1-#5 (Fig.5d) [2, 21]: 0.08371 and 0.2036 and 0.1822 and 0.2639 and 0.3024
- Competition of FITM-Cy3 fluorescence in the molecular layer [3, 20]: disappearance of fluorescence
- FITM-Cy3 signal with FITM (+), Ave (Fig.5d) [3, 22]: 0.1786
- FITM-Cy3 signal with FITM (+), individual values #1-#5 (Fig.5d) [3, 22]: 0.1218 and 0.08484 and 0.2076 and 0.2159 and 0.2628
- Effect of inhibitor on 30 µM Pd(bpy)-induced [Ca2+]i elevation [4]: suppressed by neither

SMILES: [Cl-].[Cl-].[Zn+2] [ZnCl2]
- Ca2+ response (delta ratio), WT ([5]; Fig.1e): 0.00492
- Ca2+ response of individual cells (source data Suppl Fig1), WT ([5]; single-cell values #1-#20, WT): -0.0004923 and -0.006346 and -0.007608 and 0.01052 and -0.003585 and 0.007785 and 0.05315 and -0.005223 and -0.002885 and -0.002892 and -0.004792 and -0.003569 and 0.002877 and -0.04019 and -0.002708 and -0.06293 and -0.001754 and 0.176 and -0.006623 and -0.0003538
- Ca2+ response (delta ratio), P58H/N264H ([6]; Fig.1e): -0.00161
- Ca2+ response of individual cells (source data Suppl Fig1), P58H/N264H ([6]; single-cell values #1-#20, P58H/N264H): -0.01858 and -0.04214 and -0.01035 and -0.0081 and -0.006638 and 0.08488 and -0.007315 and -0.007238 and -0.01048 and -0.008431 and -0.001785 and 0.004277 and -0.0127 and -0.01994 and 0.003692 and 0.002931 and 0.009408 and 0.02135 and 0.0149 and -0.01995
- Ca2+ response (delta ratio), A59H/N264H ([7]; Fig.1e): 0.00725
- Ca2+ response of individual cells (source data Suppl Fig1), A59H/N264H ([7]; single-cell values #1-#20, A59H/N264H): -0.01136 and 0.3757 and -0.01768 and -0.004631 and 0.0006077 and -0.008377 and -0.02044 and 0.005169 and -0.005323 and -0.01275 and -0.1876 and -0.01388 and 0.06164 and -0.009792 and -0.01495 and -0.03905 and -8.46E-05 and 0.03053 and 0.01748 and -0.0002154
- Ca2+ response (delta ratio), K61H/N264H ([8]; Fig.1e): 0.01018
- Ca2+ response of individual cells (source data Suppl Fig1), K61H/N264H ([8]; single-cell values, K61H/N264H): 0.0106 and 0.02204 and -0.0158 and -0.01138 and -0.0001308 and -0.01253 and -0.01344 and 0.3114 and -0.05129 and -0.02739 and -0.01424 and -0.005346 and 0.09999 and -0.01502
- Ca2+ response (delta ratio), P57H/N264H ([9]; Fig.1e): -0.002972
- Ca2+ response of individual cells (source data Suppl Fig1), P57H/N264H ([9]; single-cell values #1-#20, P57H/N264H): -0.0004538 and -0.005931 and -0.01735 and 0.02302 and 0.0025 and -0.02347 and -0.004954 and -0.01065 (2×) and 0.01802 and -0.01439 and 0.007646 and -0.01182 and 0.0001154 and -0.0004462 and -0.009846 and 0.01085 and 0.0122 and -0.009315 and -0.01449
- Ca2+ response (delta ratio), E60H/N264H ([10]; Fig.1e): -0.009416
- Ca2+ response of individual cells (source data Suppl Fig1), E60H/N264H ([10]; single-cell values #1-#20, E60H/N264H): -0.005892 and -0.03255 and -0.003646 and -0.02008 and -0.003615 and 0.05645 and 0.08788 and -0.01442 and -0.01449 and -0.04369 and -0.008223 and -0.02082 and -0.01922 and -0.01408 and -0.01929 and -0.02112 and -0.02071 and -0.02984 and -0.03302 and -0.007923
- Ca2+ response of individual cells (source data Suppl Fig1), Vec [11]: -0.02208 and -0.02062 and -0.01588 and -0.01264 and 0.0006769 and -0.01746 and -1.54E-05 and -0.004454 and -0.02104 and -0.008908 and -0.02662 and 0.006915 and 0.02477 and 0.001469 and -0.01177 and -0.03347 and -0.02945 and -0.01742 and 0.01306 and -0.02001
- Ca2+ response of individual cells (source data, sheet Suppl Fig1) [12]: -0.009 and -0.001631 and -0.01245 and -0.02388 and -0.01824 and -0.008531
- Ca2+ response (delta ratio), Vec [13]: -0.01075
- Ca2+ response of individual cells (source data Suppl Fig1), A59H/A265H [14]: 0.02775 and 0.01526 and -0.01 and -0.0009538 and -0.04594 and 0.01742 and 0.01817 and 0.02166 and -0.009515 and -0.04688 and 0.04091 and -0.03576 and 0.04018 and -0.001815
- Ca2+ response of individual cells (source data, sheet Suppl Fig1) [15]: -0.0199 and 0.02527 and 0.05882 and -0.05132 and 0.1351 and 0.01718
- Ca2+ response (delta ratio), A59H/A265H [16]: 0.009782
- Ca2+ response of individual cells (source data Suppl Fig1), A59H/G266H [17]: -0.005723 and -0.01571 and -0.007938 and -0.01115 and -0.002308 and 0.008723 and -0.07331 and -0.0327 and -0.004923 and 0.01074 and -0.0004923 and -0.02615 and -0.03942 and 0.04141
- Ca2+ response of individual cells (source data, sheet Suppl Fig1) [18]: -0.02524 and -0.001377 and -0.01992 and 0.004231 and -0.03185 and -0.008431
- Ca2+ response (delta ratio), A59H/G266H [19]: -0.01208
